The source made the active and inactive calls.
Experiments:
Beta Lactamase = Beta Lactamase (Pseudomonas aeruginosa, UniProt Q932Y6); assay: beta-lactamase reporter inhibitor potency, dose response, artefact control for NOD2-RIPK2 interaction inhibitor project, BLA reporter cells, FRET fluorescence (AID 651552); type: functional, cell-based
[1] = biological target: T1, Orexin/Hypocretin receptor type 1 (Homo sapiens, UniProt O43613); assay: Homogeneous Time Resolved Fluorescence (HTRF)-based cell-based high throughput dose response assay for antagonists of the orexin 1 receptor (OX1R; HCRTR1). [Related pubchem assays (depositor defined):AID434989, AID435008, AID463079, AID485270, AID492963, AID492964, AID492965, AID493232, AID504717, AID504718]; type: functional
T1 sequence (O43613 whole entry): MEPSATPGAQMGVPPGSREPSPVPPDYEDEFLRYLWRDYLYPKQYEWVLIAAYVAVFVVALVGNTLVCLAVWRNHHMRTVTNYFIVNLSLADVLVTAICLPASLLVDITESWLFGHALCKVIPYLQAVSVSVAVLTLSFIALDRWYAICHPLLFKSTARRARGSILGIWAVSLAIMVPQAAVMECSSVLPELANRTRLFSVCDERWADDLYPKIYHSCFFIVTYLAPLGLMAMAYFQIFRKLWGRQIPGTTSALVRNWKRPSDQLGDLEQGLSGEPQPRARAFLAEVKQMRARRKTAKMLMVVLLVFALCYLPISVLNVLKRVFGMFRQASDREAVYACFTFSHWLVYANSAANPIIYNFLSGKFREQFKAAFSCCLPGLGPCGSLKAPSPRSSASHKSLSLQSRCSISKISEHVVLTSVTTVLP

[2] = biological target: T1, Orexin/Hypocretin receptor type 1; assay: Fluorescence-based cell-based high throughput dose response assay for antagonists of the orexin 1 receptor (OX1R; HCRTR1). [Related pubchem assays (depositor defined):AID434989, AID435008, AID463079, AID485270, AID492963, AID492964, AID492965, AID493232, AID504717, AID504718]; type: functional
[3] = biological target: Heat shock protein HSP 90-alpha (Homo sapiens, UniProt P07900); type: functional, organism-based
[4] = Luminescence Cell-Based Dose Confirmation HTS to Identify Inhibitors of Platelet Dense Granule Release. [Related pubchem assays: 1663 (Primary HTS), 1678 (Summary of Project)]; type: functional
[5] = biological target: T2, Sphingosine 1-phosphate receptor 4 (Homo sapiens, UniProt O95977); assay: Fluorescence dose response cell-based high throughput screening assay for antagonists of the Sphingosine 1-Phosphate Receptor 4 (S1P4). [Related pubchem assays: 1524 (Confirmation in triplicates.), 1510 (Primary screen.)]; type: functional
T2 sequence (O95977 whole entry): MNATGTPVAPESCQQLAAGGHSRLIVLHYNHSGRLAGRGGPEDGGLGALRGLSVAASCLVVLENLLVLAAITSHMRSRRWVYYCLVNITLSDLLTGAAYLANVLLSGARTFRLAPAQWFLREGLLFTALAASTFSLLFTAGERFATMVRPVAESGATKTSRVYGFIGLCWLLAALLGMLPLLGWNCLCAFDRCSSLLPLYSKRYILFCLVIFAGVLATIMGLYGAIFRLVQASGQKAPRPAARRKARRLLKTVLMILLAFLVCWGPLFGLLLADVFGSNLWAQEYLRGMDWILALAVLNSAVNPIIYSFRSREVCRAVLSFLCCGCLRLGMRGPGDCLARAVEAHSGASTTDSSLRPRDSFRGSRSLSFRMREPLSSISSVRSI

[6] = (§1) Counterscreen for antagonists of the orexin 1 receptor (OX1R; HCRTR1): Fluorescence-based cell-based high throughput dose response assay to identify antagonists of the parental CHO cell line. [Related pubchem assays (depositor defined):AID434989, AID435008, AID463079, AID485270, AID492963, AID492964, AID492965, AID493232, AID504699, AID504701]; type: functional
[7] = biological target: T3, Voltage-gated N-type calcium channel alpha-1B subunit/Amyloid beta A4 precursor protein-binding family A member 1 (Homo sapiens, UniProt Q00975+Q02410); type: protein assay
T3 sequence (Q00975 whole entry): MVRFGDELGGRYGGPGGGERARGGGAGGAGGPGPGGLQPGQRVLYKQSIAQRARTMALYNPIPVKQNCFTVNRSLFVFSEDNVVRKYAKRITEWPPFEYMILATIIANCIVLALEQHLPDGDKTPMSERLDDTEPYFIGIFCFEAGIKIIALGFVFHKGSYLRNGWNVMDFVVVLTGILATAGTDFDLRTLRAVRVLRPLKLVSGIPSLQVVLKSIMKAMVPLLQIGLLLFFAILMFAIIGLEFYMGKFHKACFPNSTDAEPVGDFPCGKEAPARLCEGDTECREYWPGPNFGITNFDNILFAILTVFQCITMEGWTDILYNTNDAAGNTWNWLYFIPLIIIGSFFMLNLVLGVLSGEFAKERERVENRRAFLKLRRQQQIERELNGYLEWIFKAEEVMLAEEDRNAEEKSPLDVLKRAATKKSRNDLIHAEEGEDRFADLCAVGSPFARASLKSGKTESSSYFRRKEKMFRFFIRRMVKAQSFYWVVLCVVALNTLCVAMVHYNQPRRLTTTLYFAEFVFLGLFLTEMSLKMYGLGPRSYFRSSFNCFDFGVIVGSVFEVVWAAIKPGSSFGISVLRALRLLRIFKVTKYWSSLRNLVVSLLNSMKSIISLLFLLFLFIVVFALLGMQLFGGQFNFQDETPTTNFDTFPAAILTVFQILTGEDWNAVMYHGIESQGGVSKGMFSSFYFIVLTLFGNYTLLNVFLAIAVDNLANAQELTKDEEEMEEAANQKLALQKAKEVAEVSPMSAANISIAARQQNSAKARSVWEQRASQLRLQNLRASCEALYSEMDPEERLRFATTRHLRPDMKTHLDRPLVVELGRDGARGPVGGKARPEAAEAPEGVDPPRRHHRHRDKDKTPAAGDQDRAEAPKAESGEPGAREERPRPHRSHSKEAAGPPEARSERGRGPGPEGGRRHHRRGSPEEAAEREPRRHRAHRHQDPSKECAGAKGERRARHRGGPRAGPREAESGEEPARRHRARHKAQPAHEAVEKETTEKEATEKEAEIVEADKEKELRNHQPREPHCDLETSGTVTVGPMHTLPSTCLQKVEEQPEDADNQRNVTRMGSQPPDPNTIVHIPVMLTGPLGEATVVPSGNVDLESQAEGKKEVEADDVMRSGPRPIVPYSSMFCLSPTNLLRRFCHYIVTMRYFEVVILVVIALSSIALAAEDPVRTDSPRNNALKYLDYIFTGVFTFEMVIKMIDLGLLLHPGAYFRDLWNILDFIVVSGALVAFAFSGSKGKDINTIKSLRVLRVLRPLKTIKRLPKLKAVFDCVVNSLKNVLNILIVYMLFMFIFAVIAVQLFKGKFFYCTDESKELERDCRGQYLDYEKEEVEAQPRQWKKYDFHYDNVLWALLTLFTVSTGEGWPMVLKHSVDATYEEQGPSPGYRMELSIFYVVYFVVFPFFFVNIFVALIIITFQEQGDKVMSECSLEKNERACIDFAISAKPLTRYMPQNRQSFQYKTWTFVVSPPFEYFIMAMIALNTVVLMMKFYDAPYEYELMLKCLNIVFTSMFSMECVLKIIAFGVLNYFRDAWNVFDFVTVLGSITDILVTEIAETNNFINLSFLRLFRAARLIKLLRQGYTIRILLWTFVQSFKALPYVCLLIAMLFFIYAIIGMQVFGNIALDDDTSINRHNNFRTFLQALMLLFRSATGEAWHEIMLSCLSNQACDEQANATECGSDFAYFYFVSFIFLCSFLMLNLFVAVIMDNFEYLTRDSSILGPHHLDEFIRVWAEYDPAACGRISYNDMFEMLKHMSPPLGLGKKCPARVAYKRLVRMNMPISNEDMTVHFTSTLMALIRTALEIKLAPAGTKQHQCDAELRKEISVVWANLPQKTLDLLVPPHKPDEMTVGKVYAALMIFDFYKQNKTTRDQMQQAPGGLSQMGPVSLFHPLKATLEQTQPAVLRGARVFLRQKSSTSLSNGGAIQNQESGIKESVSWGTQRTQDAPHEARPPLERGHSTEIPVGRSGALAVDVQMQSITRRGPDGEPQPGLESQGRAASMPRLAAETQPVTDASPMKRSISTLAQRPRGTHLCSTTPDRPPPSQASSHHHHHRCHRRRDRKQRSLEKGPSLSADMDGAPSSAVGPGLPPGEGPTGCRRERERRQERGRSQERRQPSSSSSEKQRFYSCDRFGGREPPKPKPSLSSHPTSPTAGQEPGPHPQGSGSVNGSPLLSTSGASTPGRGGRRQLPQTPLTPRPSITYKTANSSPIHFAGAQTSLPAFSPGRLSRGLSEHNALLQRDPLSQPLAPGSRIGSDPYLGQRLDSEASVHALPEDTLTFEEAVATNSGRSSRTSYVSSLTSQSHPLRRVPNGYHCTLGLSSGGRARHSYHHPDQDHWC
T3 sequence (Q02410 whole entry): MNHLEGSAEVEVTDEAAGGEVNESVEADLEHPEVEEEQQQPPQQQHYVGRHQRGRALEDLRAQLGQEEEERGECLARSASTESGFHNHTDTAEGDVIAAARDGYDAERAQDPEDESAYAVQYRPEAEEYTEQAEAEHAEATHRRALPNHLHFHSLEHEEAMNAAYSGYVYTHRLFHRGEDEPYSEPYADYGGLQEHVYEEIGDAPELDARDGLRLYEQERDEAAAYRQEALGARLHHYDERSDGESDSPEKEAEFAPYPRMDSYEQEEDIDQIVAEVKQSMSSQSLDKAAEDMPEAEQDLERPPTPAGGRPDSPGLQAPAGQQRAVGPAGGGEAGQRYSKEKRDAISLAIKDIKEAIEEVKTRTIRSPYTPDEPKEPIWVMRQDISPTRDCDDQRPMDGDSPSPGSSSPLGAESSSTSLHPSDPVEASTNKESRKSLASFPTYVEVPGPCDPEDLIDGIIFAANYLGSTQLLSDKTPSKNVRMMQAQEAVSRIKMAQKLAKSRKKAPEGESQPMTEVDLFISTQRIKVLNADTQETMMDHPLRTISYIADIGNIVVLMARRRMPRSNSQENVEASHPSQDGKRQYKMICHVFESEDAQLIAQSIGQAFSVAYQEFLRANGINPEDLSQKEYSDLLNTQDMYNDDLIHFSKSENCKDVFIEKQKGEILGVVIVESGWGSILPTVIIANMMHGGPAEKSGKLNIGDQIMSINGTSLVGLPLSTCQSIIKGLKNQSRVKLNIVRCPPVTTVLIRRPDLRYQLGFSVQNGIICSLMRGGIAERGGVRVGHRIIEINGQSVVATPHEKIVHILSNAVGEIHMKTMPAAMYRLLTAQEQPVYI

[8] = biological target: Luciferin 4-monooxygenase (Photinus pyralis, UniProt P08659); assay: firefly luciferase enzyme inhibitors, dose response, biochemical, luminescence (AID 1891)
Sequence of Luciferin 4-monooxygenase (P08659 whole entry): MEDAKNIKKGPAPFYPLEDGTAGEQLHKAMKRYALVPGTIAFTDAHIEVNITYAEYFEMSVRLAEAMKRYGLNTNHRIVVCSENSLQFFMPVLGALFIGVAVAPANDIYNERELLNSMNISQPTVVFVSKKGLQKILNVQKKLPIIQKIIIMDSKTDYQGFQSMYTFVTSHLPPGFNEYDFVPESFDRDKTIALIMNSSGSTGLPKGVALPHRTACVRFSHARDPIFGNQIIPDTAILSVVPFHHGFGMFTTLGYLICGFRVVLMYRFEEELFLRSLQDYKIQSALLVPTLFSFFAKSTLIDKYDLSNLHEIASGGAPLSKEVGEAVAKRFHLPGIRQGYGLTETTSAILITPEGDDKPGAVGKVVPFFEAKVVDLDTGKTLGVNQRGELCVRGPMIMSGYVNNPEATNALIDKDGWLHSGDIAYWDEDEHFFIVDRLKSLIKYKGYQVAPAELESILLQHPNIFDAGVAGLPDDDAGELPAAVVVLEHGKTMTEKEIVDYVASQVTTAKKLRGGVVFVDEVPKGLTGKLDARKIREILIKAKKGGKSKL

CHO-K1 = assay: as §1, with “Homogeneous time resolved fluorescence (HTRF)-based” for “Fluorescence-based”, “cell-based” for “cell-based high throughput”, “CHO-K1” for “CHO”; type: functional; details: Cricetulus griseus;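 also: potency for inhibition of ATP-stimulated IP1 production as antagonists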
[9] = Fluorescence-based cell-based high throughput dose response assay for inhibitors of the interaction of nucleotide-binding oligomerization domain containing 2 (NOD2) and the receptor-interacting serine-threonine kinase 2 (RIPK2).; type: functional; details: Homo sapiens
[10] = biological target: Sphingosine 1-phosphate receptor 1 (Homo sapiens, UniProt P21453); type: functional;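 also: Tango beta-arrestin reporter U2OS cells stimulated with S1P near its EC80; inhibitor potency meaning antagonism of receptor activation by the natural agonist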
Sequence of Sphingosine 1-phosphate receptor 1 (P21453 whole entry): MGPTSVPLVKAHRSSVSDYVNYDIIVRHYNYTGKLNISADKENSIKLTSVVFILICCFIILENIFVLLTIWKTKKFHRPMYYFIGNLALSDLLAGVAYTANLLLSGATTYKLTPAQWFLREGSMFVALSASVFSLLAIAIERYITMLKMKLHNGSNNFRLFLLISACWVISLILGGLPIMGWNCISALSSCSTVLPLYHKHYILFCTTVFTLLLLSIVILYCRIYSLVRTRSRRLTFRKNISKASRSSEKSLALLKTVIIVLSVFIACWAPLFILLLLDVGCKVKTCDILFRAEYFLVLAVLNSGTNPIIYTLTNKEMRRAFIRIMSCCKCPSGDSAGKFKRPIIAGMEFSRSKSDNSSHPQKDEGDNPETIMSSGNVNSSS

[11] = biological target: T3, Voltage-gated N-type calcium channel alpha-1B subunit/Amyloid beta A4 precursor protein-binding family A member 1; type: protein assay; remark: listed apart in the source
Vero [12] = assay: cytotoxicity of synthesized analogs in Vero cells, SAR follow-up, cytotoxicity control for West Nile virus antiviral project, cell-based, set II (AID 2402); type: functional; details: Chlorocebus sabaeus
Vero [13] = assay: West Nile virus CPE inhibition, SAR follow-up, cell-based, synthesized analogs (AID 2238); type: functional; details: Chlorocebus sabaeus
Vero [14] = assay: cytotoxicity of synthesized analogs in Vero 76, SAR follow-up, cytotoxicity control for West Nile virus antiviral project, Vero 76 cells (AID 2414); type: functional; details: Chlorocebus sabaeus
Vero [15] = assay: Vero E6 cell cytotoxicity, SAR follow-up, cytotoxicity control for West Nile virus antiviral project, synthesized analogs (AID 2244); type: functional; details: Chlorocebus sabaeus
[16] = biological target: T4, Ubiquitin-conjugating enzyme E2 N (Homo sapiens, UniProt P61088); type: functional;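 also: Dose-response confirmation in a TR-FRET assay detecting UBC13-driven polyubiquitin chain formation, inhibition measured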
T4 sequence (P61088 whole entry): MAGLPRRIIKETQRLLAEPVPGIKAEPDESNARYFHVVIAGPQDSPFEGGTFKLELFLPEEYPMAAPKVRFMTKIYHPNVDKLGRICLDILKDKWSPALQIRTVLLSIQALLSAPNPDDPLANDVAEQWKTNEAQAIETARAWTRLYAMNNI

[17] = A Cell Based Assay for the Identification of Probe candidate Compounds with Anti- Venezuelan Equine Encephalitis virus. [Related pubchem assays: 2409, 2419, 1621, 2238, 2405, 2024, 2065, 2402, 2414, 1635, 1650, 2244 ]; type: functional
Coagulation factor XII = biological target: T5, Coagulation factor XII (Homo sapiens, UniProt P00748); assay: FXIIa inhibitor potency, concentration-response, biochemical (AID 716); type: functional
T5 sequence (P00748 whole entry): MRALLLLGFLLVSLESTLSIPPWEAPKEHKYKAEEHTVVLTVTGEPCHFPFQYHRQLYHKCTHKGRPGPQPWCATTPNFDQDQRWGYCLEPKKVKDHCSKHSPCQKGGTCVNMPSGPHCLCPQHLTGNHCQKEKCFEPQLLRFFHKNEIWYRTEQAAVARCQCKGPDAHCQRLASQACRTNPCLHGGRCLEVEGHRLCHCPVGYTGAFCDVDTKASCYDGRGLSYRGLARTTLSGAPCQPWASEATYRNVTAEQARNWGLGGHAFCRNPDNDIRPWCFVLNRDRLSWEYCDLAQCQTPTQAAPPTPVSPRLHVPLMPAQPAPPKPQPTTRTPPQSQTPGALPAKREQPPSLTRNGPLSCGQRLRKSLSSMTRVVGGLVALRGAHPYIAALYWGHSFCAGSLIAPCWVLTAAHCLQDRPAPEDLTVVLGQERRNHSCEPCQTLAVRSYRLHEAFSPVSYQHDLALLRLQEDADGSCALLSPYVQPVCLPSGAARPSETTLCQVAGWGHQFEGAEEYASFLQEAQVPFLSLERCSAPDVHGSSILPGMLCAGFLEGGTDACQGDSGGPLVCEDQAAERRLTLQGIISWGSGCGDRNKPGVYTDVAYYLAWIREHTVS

Sequence of Beta Lactamase (Q932Y6 whole entry): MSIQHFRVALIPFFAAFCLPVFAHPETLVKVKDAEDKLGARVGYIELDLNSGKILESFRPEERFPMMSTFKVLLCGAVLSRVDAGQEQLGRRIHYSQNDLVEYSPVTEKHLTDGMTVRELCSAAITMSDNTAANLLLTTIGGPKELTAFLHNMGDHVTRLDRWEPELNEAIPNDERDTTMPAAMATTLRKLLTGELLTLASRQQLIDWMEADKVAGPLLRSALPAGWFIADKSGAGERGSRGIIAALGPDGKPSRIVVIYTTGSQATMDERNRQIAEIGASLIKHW

With `O=C1C=C(c2ccc(Cl)cc2)C(=O)N1Nc1ccccc1` the IC50 (Beta Lactamase) was 13 µM (inactive), the IC50 [1] was 3.73 µM (active) and the IC50 [2] was 3.12 µM (active). For the same molecule, the AC50 [3] was 0.267 µM (active), the EC50 [4] was 21.5 µM (active) and the IC50 [5] was 1.95 µM (active). For the same molecule, the IC50 [6] was 4.98 µM (active), the IC50 [7] was 21.1 µM (active) and the EC50 [8] was > 112 µM (not active). For the same molecule, the IC50 (CHO-K1) was 50.7 µM (inactive), the IC50 [9] was 1.03 µM (active) and the IC50 [10] was 13.6 µM (not active). For the same molecule, the IC50 [11] was > 50 µM (inactive).

With `Cc1cccc2c1-c1sc(C(=O)NCCCN3CCC(C)CC3)cc1CO2` the CC50 (Vero [12]) was 10.1 µM (active), the IC50 (Vero [13]) was > 40 µM (active) and the CC50 (Vero [14]) was 20 µM (active). The CC50 (Vero [15]) was 10 µM (active), the IC50 [16] was > 20 µM (inactive) and the IC50 [17] was 8.52 µM (active).

With `CC(C)NC(=O)CCCc1cn(C)c2ccccc12` the IC50 (Coagulation factor XII) was > 50 µM (inactive).

From ChEMBL document CHEMBL1201862, “PubChem BioAssay data set” (2004)
